Data reported in PubChem BioAssay (NCI).
“And” between values parts separate entries of the source, which are not always exact repeats. Equal entries are not always repeated.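 These data come from cells grown in 96-well plates and exposed to compound for 48 hours at five concentrations. At the GI50, growth is halved. TGI: concentration producing complete growth inhibition.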

Columns and labels:
Test in all cases: NCI anticancer screen, dose series, 48 h
786-0 renal = system: 786-0 renal
RPMI-8226 leukemia = system: RPMI-8226 leukemia
SK-MEL-5 melanoma = system: SK-MEL-5 melanoma
OVCAR-4 ovarian = system: OVCAR-4 ovarian
HCC-2998 colon = system: HCC-2998 colon
PC-3 prostate = system: PC-3 prostate
SK-MEL-2 melanoma = system: SK-MEL-2 melanoma
HOP-92 NSCLC = system: HOP-92 NSCLC
MDA-MB-435 = system: MDA-MB-435
SN12C renal = system: SN12C renal

SMILES	GI50 (786-0 renal)	TGI (786-0 renal)	GI50 (RPMI-8226 leukemia)	TGI (RPMI-8226 leukemia)	GI50 (SK-MEL-5 melanoma)	TGI (SK-MEL-5 melanoma)	GI50 (OVCAR-4 ovarian)	TGI (OVCAR-4 ovarian)	GI50 (HCC-2998 colon)	TGI (HCC-2998 colon)	GI50 (PC-3 prostate)	TGI (PC-3 prostate)	GI50 (SK-MEL-2 melanoma)	TGI (SK-MEL-2 melanoma)	GI50 (HOP-92 NSCLC)	TGI (HOP-92 NSCLC)	GI50 (MDA-MB-435)	TGI (MDA-MB-435)	GI50 (SN12C renal)	TGI (SN12C renal)
COc1cc(C(=O)n2nc(N3CCN(C)CC3)c3cc(N)ccc32)cc(OC)c1OC	4.42 µM	> 100 µM	4.79 µM	34.8 µM	3.03 µM	9.06 µM	4.17 µM	> 100 µM	3.6 µM	14.3 µM	17.7 µM	> 100 µM	10.4 µM	67.5 µM	6.4 µM	> 100 µM	1.91 µM	5.4 µM	4.42 µM	> 100 µM
O=C(O)CCC1CCC(c2cc(F)ccc2F)(S(=O)(=O)c2ccc(Cl)cc2)CC1 (stereo not drawn)	23.8 µM and > 100 µM	> 100 µM	71.4 µM and > 100 µM	> 100 µM	27.6 µM and > 100 µM	> 100 µM	30.5 µM and > 65.6 µM	> 100 µM	38 µM and > 75.4 µM	> 100 µM	75.8 µM and > 100 µM	> 100 µM	20.1 µM and > 100 µM	69.7 µM and > 100 µM	–	95.1 µM and > 100 µM	14.5 µM and 26.5 µM	31.2 µM and > 92.7 µM	49 µM and > 100 µM	> 100 µM
[N-]=[N+]=CC(=O)OCC(N)C(=O)O (stereo not drawn)	0.856 µM	> 100 µM	1.8 µM	> 100 µM	0.563 µM	14.5 µM	4.29 µM	> 100 µM	0.556 µM	> 100 µM	2.42 µM	> 100 µM	15.9 µM	> 100 µM	> 100 µM	> 100 µM	0.457 µM	> 100 µM	0.749 µM	> 100 µM
CC(C)=CCC/C(C)=C/CC/C(=C/COP(=O)(OCc1ccc([N+](=O)[O-])o1)N(C)CCCCCl)C(C)(C)C (stereo not drawn)	2.53 µM	8.18 µM	1.45 µM	12.3 µM	3.29 µM	11.4 µM	11.8 µM	33.1 µM	0.0486 µM	2.29 µM	0.43 µM	15.1 µM	2.73 µM	11.4 µM	12.8 µM	25.4 µM	10.1 µM	30.8 µM	2.6 µM	7.27 µM
O=C1/C(=C/C(Cl)=C/c2ccccc2)SC(=S)N1CCc1ccc(O)cc1	2.19 µM	4.92 µM	0.674 µM	12.7 µM	1.77 µM	3.31 µM	3.19 µM	35.8 µM	1.91 µM	3.72 µM	2.1 µM	7.42 µM	2.56 µM	7.42 µM	3.18 µM	21.6 µM	1.61 µM	4.27 µM	1.51 µM	4.12 µM
CCOC(=O)c1cc2ncccc2c2ccccc12	–	> 100 µM	–	> 100 µM	–	> 100 µM	–	> 100 µM	–	> 100 µM	–	> 100 µM	–	> 100 µM	–	> 100 µM	–	> 100 µM	–	> 100 µM
CC(=O)OCC1OC(S[As](C)C)C(OC(C)=O)C1OC(C)=O (stereo not drawn)	0.176 µM	0.77 µM	–	0.126 µM	0.162 µM	0.385 µM	1.15 µM	8.09 µM	0.255 µM	1.76 µM	1.11 µM	13.1 µM	1.2 µM	7.82 µM	0.328 µM	2.57 µM	0.0672 µM	0.301 µM	0.33 µM	1.51 µM
CC(C)(O)[C@H]1[C@@H]2OC(=O)[C@H]1[C@]1(O)C[C@H]3OC34C(=O)O[C@H]2[C@@]41C (stereo partly drawn) (tested in a mixture with another compound)	–	> 100 µM	–	> 100 µM	–	> 100 µM	–	> 100 µM	–	> 100 µM	–	> 100 µM	–	> 100 µM	–	> 100 µM	–	> 100 µM	–	> 100 µM
COC(=O)c1c2c(c(C)[n+]([O-])c1C)C(=O)C(NCc1ccc(F)c(F)c1)=CC2=O	3.17 µM	12.7 µM	2.05 µM	5.6 µM	1.14 µM	2.38 µM	1.03 µM	2.22 µM	2.26 µM	5.35 µM	1.91 µM	7.75 µM	2.16 µM	6.73 µM	2.81 µM	6.43 µM	1.7 µM	3.15 µM	1.73 µM	4.32 µM
COc1ccc(F)cc1C(=O)c1cnc(NC2CCN(S(C)(=O)=O)CC2)nc1N	5.03 µM	> 25 µM	3.27 µM	13.1 µM	3.12 µM	> 21.4 µM	5.7 µM	> 21.4 µM	3.55 µM	> 25 µM	2.79 µM	18.1 µM	3.48 µM	9.76 µM	1.35 µM	9.59 µM	2.39 µM	> 25 µM	4.92 µM	> 25 µM
Cc1ccc(C(=O)NC2CCCCC2)cc1-c1ccc(C(=O)NCC2CC2)cc1	> 25 µM	> 25 µM	> 25 µM	> 25 µM	19.9 µM	> 25 µM	> 25 µM	> 25 µM	> 25 µM	> 25 µM	> 22.8 µM	> 25 µM	> 25 µM	> 25 µM	6.02 µM	> 25 µM	> 25 µM	> 25 µM	> 25 µM	> 25 µM
O=C(O)CC1(C(=O)O)CCCCC1	–	> 100 µM	–	> 100 µM	–	> 100 µM	–	> 100 µM	–	> 100 µM	–	> 100 µM	–	> 100 µM	–	> 100 µM	–	> 100 µM	–	> 100 µM
CO[C@H](C(=O)N[C@@H](CCCCNC(=O)OCc1ccccc1)C(=O)OC(C)(C)C)[C@@H]1Cc2cc3cc(OC4CC(OC5CC(O)C(O)C(C)O5)C(O)C(C)O4)c(C)c(O)c3c(O)c2C(=O)[C@H]1OC1CC(OC2CC(OC3CC(C)(O)C(O)C(C)O3)C(O)C(C)O2)C(O)C(C)O1 (stereo partly drawn)	0.563 µM	1.88 µM	0.487 µM	3.65 µM	0.432 µM	1.59 µM	3 µM	> 10 µM	0.885 µM	3.2 µM	0.7 µM	8.67 µM	0.942 µM	3.29 µM	0.443 µM	1.97 µM	0.805 µM	2.28 µM	0.463 µM	3.88 µM
